Test results from patent publication US11413278B2, “Compounds and methods for promoting stress resistance” (priority 2015, dated 2022).
“Also recorded” adds a separate entry of the source. Read-outs that look alike come from different tables or passages of the source.

Key:
human PARP1 = target: T1, human PARP1 (Homo sapiens, UniProt P09874); test: PARP inhibitor assay (HT Fluorescent Homogeneous PARP Inhibition Assay Kit); format: biochemical; settings: 10 μM, in vitro
T1 construct: purchased Trevigen
T1 sequence (P09874 whole entry): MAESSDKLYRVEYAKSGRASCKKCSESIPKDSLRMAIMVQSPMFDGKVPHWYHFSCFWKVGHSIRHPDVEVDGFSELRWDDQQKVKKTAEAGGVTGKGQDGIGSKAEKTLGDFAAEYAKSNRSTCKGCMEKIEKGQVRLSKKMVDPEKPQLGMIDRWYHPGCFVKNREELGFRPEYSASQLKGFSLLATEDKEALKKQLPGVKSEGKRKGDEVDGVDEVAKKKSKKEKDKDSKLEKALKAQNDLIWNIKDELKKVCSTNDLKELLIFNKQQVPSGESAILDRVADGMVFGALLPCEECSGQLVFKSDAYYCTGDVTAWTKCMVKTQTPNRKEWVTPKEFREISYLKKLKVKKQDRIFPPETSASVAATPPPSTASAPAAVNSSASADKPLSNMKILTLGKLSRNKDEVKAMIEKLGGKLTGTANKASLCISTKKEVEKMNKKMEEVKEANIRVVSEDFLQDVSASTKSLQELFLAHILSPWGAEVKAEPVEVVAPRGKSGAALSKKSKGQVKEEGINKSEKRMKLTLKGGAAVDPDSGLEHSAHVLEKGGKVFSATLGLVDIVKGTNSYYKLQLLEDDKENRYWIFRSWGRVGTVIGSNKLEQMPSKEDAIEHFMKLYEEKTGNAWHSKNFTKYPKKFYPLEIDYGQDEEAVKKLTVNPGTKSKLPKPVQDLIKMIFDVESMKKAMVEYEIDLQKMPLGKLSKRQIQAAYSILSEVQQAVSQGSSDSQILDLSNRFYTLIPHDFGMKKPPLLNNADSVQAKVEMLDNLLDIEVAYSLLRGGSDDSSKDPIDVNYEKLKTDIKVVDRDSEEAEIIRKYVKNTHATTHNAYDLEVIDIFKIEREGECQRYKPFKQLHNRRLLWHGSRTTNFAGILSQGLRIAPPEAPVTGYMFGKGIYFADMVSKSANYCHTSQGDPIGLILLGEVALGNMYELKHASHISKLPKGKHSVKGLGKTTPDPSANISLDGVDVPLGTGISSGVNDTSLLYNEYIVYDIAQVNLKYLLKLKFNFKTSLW
Protocol: (§1) The assay was performed with the HT Fluorescent Homogeneous PARP Inhibition Assay Kit (Trevigen), following manufacturer's instructions. Briefly, nicotinamide adenine dinucleotide, human PARP1 and activated-DNA solution was added onto a 96-well plate. 54 repurchased small molecules, at 10 μM final concentration, were introduced onto the 96-well assay plate and incubated in a humid chamber at room temperature for 30 min in dark. Cycling mixture, with resazurin and cycling enzyme diaphorase, was then added and incubated further for 1 hr in dark. Reaction was terminated by adding the stopping buffer.
as §1, with “(Trevegen),” for “(Trevigen),”, “stopped” for “terminated”

WI-38 cells [1] = test: CdCl2 (cadmium) resistance assay; format: cell-based, human; settings: YES/NO; for Assay 2: Cadmium-resistant: * indicates partial
Protocol: (§2) For many stress conditions tested previously, one significant correlation to longevity is the cellular resistance to H2O2 or CdCl2. Applicants then tested these small molecules, at five different final concentrations (0.25 μM to 20 μM), for cadmium and MMS resistance in WI-38 cells.
(§3) The setups on 384-well plates and incubation times were the same as for H2O2 until the time of incubation with the stressors, which was 12 hours for both cadmium and MMS assays. Applicants tested several conditions, including conditions used to assay fibroblasts from long-lived animals (Salmon et al., 2005). These conditions produced better results with the positive controls (KEAP1 and AKT1 siRNAs) in the MMS assay. Thus, for MMS, the cells were shifted from growth media—OptiMEM+10% FBS, to DMEM (Gibco)+2% BSA (no serum) just before adding small molecules, which occurred 24 hours before MMS addition.
(§4) Isolated small molecules were tested for MMS and cadmium resistance twice in two independent assays. Each small molecule was analyzed at five different concentrations (0.25 μM to 20 μM final concentration), with technical triplicates for each dose. Data were analyzed using a global variance t-test.

WI-38 cells [2] = test: MMS resistance assay; format: cell-based, human; settings: YES/NO
Protocol: as §2, §3, §4

[3] = system: human dermal fibroblast (HDF) primary cells; test: H2O2-resistance in primary human dermal fibroblasts; format: cell-based; settings: YES/NO
C. elegans = C. elegans lifespan assays (liquid and plate); format: in vivo, Caenorhabditis elegans; settings: Caenorhabditis elegans, at 66 uM
[4] = system: HTB-178 lung tumor cells (EGFR+, PIK3CA+, RB1−, TP53−); test: Killing effects on HTB-178 tumor cells; format: cell-based, human; settings: Assay 1(y); at 10 uM, 1st
WI-38 cells [5] = settings: for Assay 1: H2O2-resistant: YES/NO, if NO, possibly due to repeated freezing/thawing of stocks; for EC50: read-out: Est. ED50, dose response 0.6-20 μM, H2O2-resistance
FOXO3 = test: qPCR analysis of FOXO3-regulated genes; format: cell-based, human; settings: Homo sapiens, 24 h; Assay 10(m); at 10 uM, qPCR; read-out: Induction of FOXO3-regulated genes: SOD2 normalized fold-change
Outline: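 FOXO3 target-gene expression quantified by qPCR normalised to B2M, PPIA and GAPDH, in WI-38 cells after 24 h exposure to 10 μM compound. Some runs used cells first transfected 36 h with 10 nM FOXO3 or NRF2 siRNA and replated ~24 h before dosing.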

NRF2 [6] = test: qPCR analysis of NRF2-regulated genes; format: cell-based, human; settings: Homo sapiens, 24 h; Assay 12(o); at 10 uM, qPCR; read-out: Induction of NRF2-regulated genes: GSTM1 normalized fold-change
Outline: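 Expression of HMOX1, NQO1, GCLC and GSTM1 measured by qPCR relative to B2M, PPIA and GAPDH. Cells were WI-38 fibroblasts exposed 24 hrs to 10 μM compound, with RNA and cDNA prepared via Cells-to-Ct. Where stated, cells were first transfected 36 hrs with FOXO3 or NRF2 siRNA at 10 nM.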

NRF2 [7] = test: in vitro; format: cell-based, human; settings: 10 uM; YES/NO
Protocol: For qPCR analysis, WI-38 cells were treated with small molecules (at 10 μM) (biological quadruplicates) for 24 hrs and processed for RNA isolation and reverse transcription (RT) with the Cells-to-Ct Kit (Life Technologies), following manufacturer's instructions. RT products were diluted with H2O and used for qPCR analysis on an ABI 7300 system (Life Technologies) (technical triplicates). Relative expression levels of target genes were normalized to the genes B2M, PPIA and GAPDH. To knock down the expression of FOXO3 or NRF2, WI-38 cells were transfected, using the RNAiMAX reagents (Life Technologies), with siRNA oligos (at 10 nM final concentration, 10 ml culture medium) for FOXO3 (Life Technologies) or NRF2 (Integrated DNA Technologies) on 10-cm petri dishes for 36 hrs, and then detached and aliquoted onto 96-well (for qPCR analysis) or 384-well plates (for H2O2-stress treatment). ˜24 hrs later, small molecules were introduced and incubated with cells for 24 hrs. Cells were then either processed with the Cells-to-Ct Kit to prepare RT products for qPCR analysis or subjected to H2O2 (700 μM) for 3 hrs and assayed for viability. The knockdown efficiency of FOXO3 or NRF2 was checked at 36 hrs post-transfection and at the end as well.
For qPCR analysis, WI-38 cells were treated with small molecules (at 10 μM) (biological quadruplicate) for 24 hrs and processed for RNA isolation and reverse transcription (RT) with the Cells-to-Ct Kit (Life Technologies), following manufacturer's instructions. RT products were diluted with H2O and used for qPCR analysis on a LightCycler 480 system (Roche) (technical triplicates). Relative expression levels of target genes were normalized to the genes B2M, PPIA and GAPDH. To knock down the expression of FOXO3 or NRF2, WI-38 cells were transfected with siRNA oligos (at 10 nM final concentration) for FOXO3 (Life Technologies) or NRF2 on 10-cm petri dish for 36 hrs, and then detached and aliquoted onto 96-well plates. ˜24 hrs later, small molecules were introduced and incubated with cells for 24 hrs. Cells were then processed with the Cells-to-Ct Kit to prepare RT products for qPCR analysis. The knockdown efficiency of FOXO3 or NRF2 was checked at 36 hrs post-transfection and at the end as well.
Of these, O15 and O20 consistently (in 3 of 3 experiments) required NRF2 to promote H2O2-resistance, and their resistance capacities were reduced by ˜90% on average upon NRF2 knockdown under conditions tested.

[8] = Assay 2(z), 1.0 × 10^9 bacteria/ml, wild type + FuDR (2012 July), read-out: Lifespan assay in liquid
[9] = Assay 3(aa), 2.5 × 10^9 bacteria/ml, wild type + FuDR, read-out: Lifespan assay in liquid
[10] = Assay 4(ab), 2.0 × 10^10 bacteria/ml, CF512 worms, no FuDR, read-out: Lifespan assay on plates

SMILES	Inhibition of PARP1 (human PARP1)	Assay 4: H2O2- & Cd-resistant (WI-38 cells [1])	Assay 2: Cadmium-resistant (WI-38 cells [1])	Assay 3: MMS-resistant (WI-38 cells [2]; * indicates partial)	Assay 5: Triple resistant (WI-38 cells [2]; H2O2, cadmium and MMS)	Assay 6: H2O2-resistant, at 10 uM, human dermal fibroblast (HDF) primary cells [3]	ILS at 66 µM (C. elegans; [8]) [%]	ILS at 66 µM (C. elegans; [9]) [%]	ILS at 66 µM (C. elegans; [10]) [%]	Potential killing effects on HTB-178 tumor cells, 1st [4]	Assay 1: H2O2-resistant (WI-38 cells [5])	EC50 (WI-38 cells [5]) [µM]	fold induction at 10 µM (FOXO3)	fold induction at 10 µM (NRF2 [6])	Assay 17: NRF2-dependency for H2O2-resistance (NRF2 [7])
Oc1nnc(Cc2ccncc2)c2ccccc12 [Gr-2B]	inhibitors of PARP1; also recorded: PARP inhibitors	YES	YES	YES	YES	YES	2.5	-1.1	14.1	YES;	YES	3.05			
O=C(CCCc1nnc2n3nc(-c4ccccc4)nc3c3ccccc3n12)N1CCOCC1 [O8]						YES	6.6	3.8	10	YES;		20	1.07	0.82	
CC(COc1ccc2c(c1)OCO2)NC(=O)Cc1nnc(O)c2ccccc12 (stereo not shown) [Gr-2E]	PARP inhibitors	YES	YES			YES	3.3	4	9.7	YES;	YES	3.82			YES
